In patent publication US20250381243A1, “HETEROCYCLES AND USES THEREOF” (Kumquat Biosciences Inc., priority 2022, published 2025):
Where two headings read alike, the source gives them in different places.

System: A549 cells
Assay: Cell proliferation assay (CellTiter-Glo), cells with K-Ras G12S mutation
Assay type: cell-based
Details: Homo sapiens, read-out: Inhibition of A549 Cells (IC50)
Method: A549 (ATCC CRL-185) and LS123 (ATCC CRL-255) cell lines comprise a G12S mutation and can be used to assess Ras cellular signaling in vitro, e.g., in response to treatment with a compound described herein. A549 culture medium is prepared with RPMI-1640 and 10% heat-inactivated FBS. LS123 culture medium is prepared with RPMI-1640 and 10% heat-inactivated FBS. A CellTiter-Glo (CTG) luminescent based assay (Promega) is used to assess growth of the cells, as a measurement of the ability of the compounds herein to inhibit Ras signaling in the cells. The cells (e.g., 800 per well) are seeded in their respective culture medium in standard tissue culture-treated 384-well format plates (Falcon #08-772-116) or ultra-low attachment surface 384-well format plates (S-Bio #MS-9384WZ). The day after plating, cells are treated with a dilution series (e.g., a 10 point 3-fold dilution series) of the compounds herein (e.g., approximately 40 μl final volume per well). Cell viability can be monitored (e.g., approximately 6 days later) according to the manufacturer's recommended instructions, where CellTiter-Glo reagent is added (e.g., approximately 10 μl), vigorously mixed, covered, and placed on a plate shaker (e.g., approximately for 20 min) to ensure sufficient cell lysis prior to assessment of luminescent signal. The IC50 values are determined using the four parameter fit. The resulting IC50 value is a measurement of the ability of the test compound to reduce cell growth of Ras-driven cells (e.g., tumor cell lines) in vitro and/or in vivo.

SMILES | IC50 (≤500 nM) | IC50 (500 nM to 5 μM (mixed units))
CC(C)[C@H]1N(C(=O)n2cnc(Cl)n2)C[C@]12CCCN(c1nc(OC[C@@]34CCCN3C[C@H](F)C4)nc3c(F)c(-c4ccc(F)c5sc(N)c(C#N)c45)c(Cl)cc13)C2 [Compound 190, 2-amino-4-(6-chloro-4-((1R,4R)-2-(3-chloro-1H-1,2,4-triazole-1-carbonyl)-1-isopropyl-2,6-diazaspiro[3.5]nonan-6-yl)-8-fluoro-2-(((2R,7aS)-2-fluorotetrahydro-1H-pyrrolizin-7a(5H)-yl)methoxy)quinazolin-7-yl)-7-fluorobenzo[b]thiophene-3-carbonitrile] | ≤ 0.5 µM | –
CN(C(=O)n1cncn1)C1CCCCN(c2nc(OC[C@@]34CCCN3C[C@H](F)C4)nc3c(F)c(-c4ccc(F)c5sc(N)c(C#N)c45)c(Cl)cc23)C1 (stereo partly drawn) [Compound 161, N-(1-(7-(2-amino-3-cyano-7-fluorobenzo[b]thiophen-4-yl)-6-chloro-8-fluoro-2-(((2R,7aS)-2-fluorotetrahydro-1H-pyrrolizin-7a(5H)-yl)methoxy)quinazolin-4-yl)azepan-3-yl)-N-methyl-1H-1,2,4-triazole-1-carboxamide] | ≤ 0.5 µM | –
COCC1([C@H]2N(C(=O)n3cnc(F)n3)C[C@]23CC[C@H](C)N(c2nc(OC[C@@]45CCCN4C[C@H](F)C5)nc4c(F)c(-c5ccc(F)c6sc(N)c(C#N)c56)c(Cl)cc24)C3)CC1 [Compound 129, 2-amino-4-(6-chloro-8-fluoro-4-((1S,4R,7S)-2-(3-fluoro-1H-1,2,4-triazole-1-carbonyl)-1-(1-(methoxymethyl)cyclopropyl)-7-methyl-2,6-diazaspiro[3.5]nonan-6-yl)-2-(((2R,7aS)-2-fluorotetrahydro-1H-pyrrolizin-7a(5H)-yl)methoxy)quinazolin-7-yl)-7-fluorobenzo[b]thiophene-3-carbonitrile] | ≤ 0.5 µM | –
CCN(C(=O)n1cnc(F)n1)[C@@H]1CCN(c2nc(OC[C@@]34CCCN3C[C@H](F)C4)nc3c(F)c(-c4ccc(F)c5sc(N)c(C#N)c45)c(Cl)cc23)[C@@H]1C [Compound 115, N-((2R,3R)-1-(7-(2-amino-3-cyano-7-fluorobenzo[b]thiophen-4-yl)-6-chloro-8-fluoro-2-(((2R,7aS)-2-fluorotetrahydro-1H-pyrrolizin-7a(5H)-yl)methoxy)quinazolin-4-yl)-2-methylpyrrolidin-3-yl)-N-ethyl-3-fluoro-1H-1,2,4-triazole-1-carboxamide] | ≤ 0.5 µM | –
C[C@H]1CC[C@]2(CN(C(=O)n3cnc(C(F)F)n3)[C@@H]2C2CCC2)CN1c1nc(OC[C@@]23CCCN2C[C@H](F)C3)nc2c(F)c(-c3ccc(F)c4sc(N)c(C#N)c34)c(Cl)cc12 [Compound 229, 2-amino-4-(6-chloro-4-((1R,4R,7S)-1-cyclobutyl-2-(3-(difluoromethyl)-1H-1,2,4-triazole-1-carbonyl)-7-methyl-2,6-diazaspiro[3.5]nonan-6-yl)-8-fluoro-2-(((2R,7aS)-2-fluorotetrahydro-1H-pyrrolizin-7a(5H)-yl)methoxy)quinazolin-7-yl)-7-fluorobenzo[b]thiophene-3-carbonitrile] | ≤ 0.5 µM | –
CCN(C(=O)n1cnc(Cl)n1)[C@@H]1CCN(c2nc(OC[C@@]34CCCN3C[C@H](F)C4)nc3c(F)c(-c4ccc(F)c5sc(N)c(C#N)c45)c(Cl)cc23)[C@@H]1C (single isomer, unassigned) [Compound 171] | ≤ 0.5 µM | –
CC[C@H]1N(C(=O)n2cnc(Cl)n2)C[C@]12CCCCN(c1nc(OC[C@@]34CCCN3C[C@H](F)C4)nc3c(F)c(-c4ccc(F)c5sc(N)c(C#N)c45)c(Cl)cc13)C2 [Compound 131, 2-amino-4-(6-chloro-4-((1R,4R)-2-(3-chloro-1H-1,2,4-triazole-1-carbonyl)-1-ethyl-2,6-diazaspiro[3.6]decan-6-yl)-8-fluoro-2-(((2R,7aS)-2-fluorotetrahydro-1H-pyrrolizin-7a(5H)-yl)methoxy)quinazolin-7-yl)-7-fluorobenzo[b]thiophene-3-carbonitrile] | ≤ 0.5 µM | –
CN(C(=O)n1cncn1)C1CCN(c2nc(OC[C@@]34CCCN3C[C@H](F)C4)nc3c(F)c(-c4ccc(F)c5sc(N)c(C#N)c45)c(Cl)cc23)C1 (stereo partly drawn) [Compound 124, N-(1-(7-(2-amino-3-cyano-7-fluorobenzo[b]thiophen-4-yl)-6-chloro-8-fluoro-2-(((2R,7aS)-2-fluorotetrahydro-1H-pyrrolizin-7a(5H)-yl)methoxy)quinazolin-4-yl)pyrrolidin-3-yl)-N-methyl-1H-1,2,4-triazole-1-carboxamide] | ≤ 0.5 µM | –
C=CCN(C[C@@H]1CN(C(=O)n2cnc(F)n2)[C@@H]1C1(C)CC1)c1nc(OC[C@@]23CCCN2C[C@H](F)C3)nc2c(F)c(-c3ccc(F)c4sc(N)c(C#N)c34)c(Cl)cc12 [Compound 136, 4-(4-(allyl(((2S,3R)-1-(3-fluoro-1H-1,2,4-triazole-1-carbonyl)-2-(1-methylcyclopropyl)azetidin-3-yl)methyl)amino)-6-chloro-8-fluoro-2-(((2R,7aS)-2-fluorotetrahydro-1H-pyrrolizin-7a(5H)-yl)methoxy)quinazolin-7-yl)-2-amino-7-fluorobenzo[b]thiophene-3-carbonitrile] | ≤ 0.5 µM | –
CC(C)[C@H]1N(C(=O)n2cnc(F)n2)C[C@@]12CN(c1nc(OC[C@@]34CCCN3C[C@H](F)C4)nc3c(F)c(-c4ccc(F)c5sc(N)c(C#N)c45)c(Cl)cc13)CCO2 [Compound 204, 2-amino-4-(6-chloro-8-fluoro-4-((1R,4S)-2-(3-fluoro-1H-1,2,4-triazole-1-carbonyl)-1-isopropyl-5-oxa-2,8-diazaspiro[3.5]nonan-8-yl)-2-(((2R,7aS)-2-fluorotetrahydro-1H-pyrrolizin-7a(5H)-yl)methoxy)quinazolin-7-yl)-7-fluorobenzo[b]thiophene-3-carbonitrile] | ≤ 0.5 µM | –
CC(C)[C@H]1N(C(=O)n2cnc(C(F)F)n2)C[C@]12CC[C@H](C)N(c1nc(OC[C@@]34CCCN3C[C@H](F)C4)nc3c(F)c(-c4ccc(F)c5sc(N)c(C#N)c45)c(Cl)cc13)C2 (atropisomer, axis not shown; (aS)) [Compound 109, (R)-2-amino-4-(6-chloro-4-((1R,4R,7S)-2-(3-(difluoromethyl)-1H-1,2,4-triazole-1-carbonyl)-1-isopropyl-7-methyl-2,6-diazaspiro[3.5]nonan-6-yl)-8-fluoro-2-(((2R,7aS)-2-fluorotetrahydro-1H-pyrrolizin-7a(5H)-yl)methoxy)quinazolin-7-yl)-7-fluorobenzo[b]thiophene-3-carbonitrile] | ≤ 0.5 µM | –
C[C@H]1CC[C@]2(CN(C(=O)n3cnc(F)n3)[C@@H]2C2(C)CC2)CN1c1nc(OC[C@@]23CCCN2C[C@H](F)C3)nc2c(F)c(-c3ccc(F)c4sc(N)c(C#N)c34)c(Cl)cc12 [Compound 185, 2-amino-4-(6-chloro-8-fluoro-4-((1R,4R,7S)-2-(3-fluoro-1H-1,2,4-triazole-1-carbonyl)-7-methyl-1-(1-methylcyclopropyl)-2,6-diazaspiro[3.5]nonan-6-yl)-2-(((2R,7aS)-2-fluorotetrahydro-1H-pyrrolizin-7a(5H)-yl)methoxy)quinazolin-7-yl)-7-fluorobenzo[b]thiophene-3-carbonitrile] | ≤ 0.5 µM | –
CC(C)[C@H]1N(C(=O)n2cnc(F)n2)C[C@]12CCCN(c1nc(OC[C@@]34CCCN3C[C@H](F)C4)nc3c(F)c(-c4ccc(F)c5sc(N)c(C#N)c45)c(Cl)cc13)C2 [Compound 184, 2-amino-4-(6-chloro-8-fluoro-4-((1R,4R)-2-(3-fluoro-1H-1,2,4-triazole-1-carbonyl)-1-isopropyl-2,6-diazaspiro[3.5]nonan-6-yl)-2-(((2R,7aS)-2-fluorotetrahydro-1H-pyrrolizin-7a(5H)-yl)methoxy)quinazolin-7-yl)-7-fluorobenzo[b]thiophene-3-carbonitrile] | ≤ 0.5 µM | –
CN(C[C@@H]1CN(C(=O)n2cnc(F)n2)[C@@H]1C(C)(C)C)c1nc(OC[C@@]23CCCN2C[C@H](F)C3)nc2c(F)c(-c3ccc(F)c4sc(N)c(C#N)c34)c(Cl)cc12 [Compound 152, 2-amino-4-(4-((((2S,3R)-2-(tert-butyl)-1-(3-fluoro-1H-1,2,4-triazole-1-carbonyl)azetidin-3-yl)methyl)(methyl)amino)-6-chloro-8-fluoro-2-(((2R,7aS)-2-fluorotetrahydro-1H-pyrrolizin-7a(5H)-yl)methoxy)quinazolin-7-yl)-7-fluorobenzo[b]thiophene-3-carbonitrile] | ≤ 0.5 µM | –
C[C@H]1CC[C@]2(CN(C(=O)n3cnc(C#N)n3)[C@@H]2C2(C)CC2)CN1c1nc(OC[C@@]23CCCN2C[C@H](F)C3)nc2c(F)c(-c3ccc(F)c4sc(N)c(C#N)c34)c(Cl)cc12 [Compound 232, 1-((1R,4R,7S)-6-(7-(2-amino-3-cyano-7-fluorobenzo[b]thiophen-4-yl)-6-chloro-8-fluoro-2-(((2R,7aS)-2-fluorotetrahydro-1H-pyrrolizin-7a(5H)-yl)methoxy)quinazolin-4-yl)-7-methyl-1-(1-methylcyclopropyl)-2,6-diazaspiro[3.5]nonane-2-carbonyl)-1H-1,2,4-triazole-3-carbonitrile] | – | 0.5 to 5 µM
